Laboratory results as given in patent publication US5463107A, “Triterpene derivatives and endothelin-receptor antagonists containing the same” (Shionogi & Co., Ltd., priority 1993, dated 1995).
Like-named read-outs stand apart in the source and are kept apart here.

How the values were obtained:
[1] = target: T1, endothelin receptor (smooth muscle A7r5 cells derived from rat aorta) (Rattus norvegicus, UniProt P26684); test: Inhibitory effect on the binding of 125I-endothelin-1 to its receptor (rat aorta smooth muscle A7r5 cells); details: 25 pM 125I-endothelin-1, 37° C., 1 hr, read-out: IC50 binding: 50% inhibition of the specific binding of 125I-endothelin-1 to its receptor
T1 construct: Smooth muscle A7r5 cells derived from rat aorta; endogenous in cells; host or cells: A7r5 (rat aortic smooth muscle)
T1 sequence (P26684 21-426): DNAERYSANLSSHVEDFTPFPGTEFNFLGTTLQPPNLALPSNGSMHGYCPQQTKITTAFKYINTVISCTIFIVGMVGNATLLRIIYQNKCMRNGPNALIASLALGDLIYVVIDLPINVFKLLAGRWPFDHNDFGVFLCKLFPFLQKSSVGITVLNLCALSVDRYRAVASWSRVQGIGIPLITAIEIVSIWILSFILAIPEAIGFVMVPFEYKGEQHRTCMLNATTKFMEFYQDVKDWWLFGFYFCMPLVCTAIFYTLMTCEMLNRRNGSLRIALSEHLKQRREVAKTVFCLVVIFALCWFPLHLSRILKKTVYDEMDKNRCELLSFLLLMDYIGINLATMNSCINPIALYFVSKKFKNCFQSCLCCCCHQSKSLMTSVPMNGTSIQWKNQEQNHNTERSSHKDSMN
Description: Inhibitory Effect on the Binding of ^125 I-Endothelin-1 to its Receptor
Smooth muscle A7r5 cells derived from rat aorta were incubated with 25 pM ^125 I-endothelin-1 at 37° C. for 1 hr in the presence or absence of a compound (I) of the present invention. After completion of the reaction, ^125 I-endothelin-1 bound to membrane fraction was separated by filtrating through glass fiber filters and the radioactivity was determined with a gamma-counter. The specific binding was calculated by subtracting the nonspecific binding which was determined in the presence of 10^-7 M non-radioactive endothelin-1 from the total binding.

[2] = system: endothelin-1-induced increase in cytosolic calcium ion concentration, rat aortic smooth muscle A7r5 cells; test: Inhibition of the endothelin-1-induced increase in cytosolic calcium ion concentration in A7r5 cells; assay type: cell-based; details: fura-2, compound 1 min before 10^-8 M endothelin-1, read-out: IC50 (Ca^2+): inhibition of endothelin-1-induced increase in cytosolic calcium concentration
Description: Inhibition of the Endothelin-1-induced Increase in Cytosolic Calcium Ion Concentration
To a cuvette was put a suspension of rat aortic smooth muscle A7r5 cells (Dainippon Pharmaceutical Co., Ltd.) on which 2 μM fura-2 (Dojin) has been loaded. The change in fluorescence intensity was determined with a calcium analyzer (CAF100, Nippon Bunkou Co.). In the determination, the excitation was performed at 340 nm and 380 nm and the recording at 510 nm. The cytosolic calcium concentration was calculated according to the method of Grynkiewicz et al., J. Biol. Chem., 260., pp. 3440-3450, 1985.
The experiment was carried out by adding a compound (I) of the present invention to the cell suspension in cuvette, incubating for 1 min, adding 10^-8 M endothelin-1, and measuring the change in fluorescence intensity.

[3] = system: endothelin-1-induced hypertension, pithed rat; test: Inhibition of endothelin-1-induced hypertension in pithed rat; assay type: in vivo; details: intravenous, dose between 0.01 and 1 mg/kg
Description: Inhibition of Endothelin-1-induced Hypertension in Pithed Rat
Under ether anesthesia, a stainless-steal rod (diameter: 2 mm) was inserted from right orbital to spinal end of a rat. The resultant pithed rat was placed under artificial respiration and the change in blood pressure was recorded. Drugs (endothelin-1 and compound 1c prepared in Example 1 or 3) were administered intravenously.

[4] = target: T2, endothelin-1-induced contraction, isolated rat thoracic aorta (Rattus norvegicus, UniProt P26684); test: Inhibition of endothelin-1-induced contraction in isolated rat thoracic aorta; details: 10^-8, 3×10^-8, 10^-7 M, 10 min, 37° C.
T2 construct: specimens isolated from rat thoracic aorta; from tissue; host or cells: rat thoracic aorta, transverse strips
T2 sequence (P26684 21-426): T1 sequence (P26684 21-426)
Description: Inhibition of Endothelin-1-induced Contradiction in Isolated Rat Thoracic Aorta
Transverse Stip specimens isolated from rat thoracic aorta were suspended in modified Locke-Ringer solution at 37° C. while aerating with mixed gas (95% O2 +5% CO2), and the isometric tension was recorded. Four specimens derived from each rat were used in the test. Thus, three specimens were treated with compound 1c (disodium salt; prepared in Example 1 or 3) of different concentration (10^-8 M, 3×10^-8 M, and 10^-7 M) for 10 min and the rest was untreated before the measurement of isometric tension.

IC50 [1] [nM] | IC50 ([2]; Rattus norvegicus) [nM] | IC50 [2] [nM] | Kb ([4]; read-out: pA2 value, endothelin-1 concentration-contraction curve (converted)) [nM] | Compound | decrease of blood pressure [3] | shift of endothelin-1 concentration-contraction curve [4]
0.5 | 2.6 | – | – | CC1(C)CC[C@]2(C(=O)O)CC[C@]3(COC(=O)/C=C/c4cc(O)ccc4NC(=O)/C=C/C(=O)O)C(=CCC4[C@@]5(C)CCC(=O)C(C)(C)C5CC[C@]43C)[C@@H]2C1 (single isomer, unassigned) [Compound 1b] | – | –
0.7 | – | 2.6 | 1.58 | CC1(C)CC[C@]2(C(=O)O)CC[C@]3(COC(=O)/C=C/c4cc(O)ccc4NC(=O)/C=C/C(=O)O)C(=CCC4[C@@]5(C)CCC(=O)C(C)(C)C5CC[C@]43C)[C@@H]2C1 (single isomer, unassigned) [Compound 1c] | decreased the blood pressure in a dose-dependent manner | shifts the concentration-contradiction curve to right in a concentration-dependent manner
24 | 4.5 | – | – | CC1(C)CC[C@]2(C(=O)O)CC[C@]3(COC(=O)/C=C/c4cc(O)ccc4N)C(=CCC4[C@@]5(C)CCC(=O)C(C)(C)C5CC[C@]43C)[C@@H]2C1 (stereo partly drawn) [Compound 1a] | – | –
3.4 | 3 | – | – | CC1(C)CC[C@]2(C(=O)O)CC[C@]3(COC(=O)/C=C/c4cc(O)ccc4NC(=O)/C=C\C(=O)O)C(=CCC4[C@@]5(C)CCC(=O)C(C)(C)C5CC[C@]43C)[C@@H]2C1 (stereo partly drawn) [Compound 1d] | – | –
3.6 | 3.5 | – | – | CC1(C)CC[C@]2(C(=O)O)CC[C@]3(COC(=O)/C=C/c4cc(O)ccc4NC(=O)CCC(=O)O)C(=CCC4[C@@]5(C)CCC(=O)C(C)(C)C5CC[C@]43C)[C@@H]2C1 (stereo partly drawn) [Compound 1e] | – | –
1.8 | 2.5 | – | – | CC1(C)CC[C@]2(C(=O)O)CC[C@]3(COC(=O)/C=C/c4cc(O)ccc4NC(=O)C(=O)O)C(=CCC4[C@@]5(C)CCC(=O)C(C)(C)C5CC[C@]43C)[C@@H]2C1 (stereo partly drawn) [Compound 1g] | – | –
9 | 5.6 | – | – | CC1(C)CC[C@]2(C(=O)O)CC[C@]3(COC(=O)/C=C/c4cc(O)ccc4NC(=O)CC(=O)O)C(=CCC4[C@@]5(C)CCC(=O)C(C)(C)C5CC[C@]43C)[C@@H]2C1 (stereo partly drawn) [Compound 1h] | – | –
6.6 | 4.6 | – | – | CC1(C)CC[C@]2(C(=O)O)CC[C@]3(COC(=O)/C=C/c4cc(O)ccc4NC(=O)CCCC(=O)O)C(=CCC4[C@@]5(C)CCC(=O)C(C)(C)C5CC[C@]43C)[C@@H]2C1 (stereo partly drawn) [Compound 1i] | – | –
2.9 | 2.8 | – | – | CC1(C)CC[C@]2(C(=O)O)CC[C@]3(COC(=O)/C=C/c4cc(O)ccc4NS(=O)(=O)O)C(=CCC4[C@@]5(C)CCC(=O)C(C)(C)C5CC[C@]43C)[C@@H]2C1 (stereo partly drawn) [Compound 1k] | – | –
5 | 2.7 | – | – | COC(=O)/C=C/C(=O)Nc1ccc(O)cc1/C=C/C(=O)OC[C@@]12CC[C@@]3(C(=O)O)CCC(C)(C)C[C@H]3C1=CCC1[C@@]3(C)CCC(=O)C(C)(C)C3CC[C@]12C (stereo partly drawn) [Compound 1m] | – | –
3 | 3 | – | – | CC1(C)CC[C@]2(C(=O)O)CC[C@]3(COC(=O)/C=C/c4cc(O)ccc4NCC(=O)O)C(=CCC4[C@@]5(C)CCC(=O)C(C)(C)C5CC[C@]43C)[C@@H]2C1 (stereo partly drawn) [Compound 1n] | – | –
76 | 10 | – | – | CC1(C)CC[C@]2(C(=O)O)CC[C@]3(COC(=O)/C=C/c4ccc(O)c(O)c4)C(=CCC4[C@@]5(C)CCC(=O)C(C)(C)C5CC[C@]43C)[C@@H]2C1 (stereo partly drawn) [Compound 50-235, reference compound] | – | –
